Laboratory results published in patent US20230109839A1, “THERAPEUTIC AGENT FOR TAUOPATHIES” (SUMITOMO PHARMA CO., LTD., priority 2020, published 2023).
“Also recorded” adds a separate entry of the source.

Experiments:
Format in all cases: in vivo, mouse
[1] = test system: intracerebral tau aggregate accumulation; experiment: Intracerebral tau aggregate accumulation in rTg4510 mice, tau PET with [18F] PM-PBB3, SUVR (Test 5)
Description: (§1) Test 5: Evaluation of Intracerebral Tau Aggregate Accumulation and Cerebral Atrophy Using rTg4510 Mice
(§2) This test is a test to evaluate the effects of the compounds on intracerebral tau aggregate accumulation and cerebral atrophy. The rTg4510 mice overexpress the human-type FTDP-17 mutant tau in the forebrain, and month-age-dependent intracerebral tau aggregate accumulation and cerebral atrophy are observed. The rTg4510 mice used herein were produced by mating Tg (tauP301L) 4510 mice (Stock No. 015815) and CaMKII-tTA mice (Stock No. 007004) purchased from The Jackson Laboratory and breeding them.
(§3) The test compound was administered as a mixed diet to rTg4510 mice from the age of 4 months, and PET scan and MRI were performed at the ages of 4, 6 and 8 months to quantitatively evaluate the amount of the intracerebral tau aggregate accumulated and cerebral atrophy. The PET scan was performed using MicroPET Focus 220 of Siemens Medical Solutions (0.851 mm thick (intercenter) 95 slices, 19.0 cm axial field of view (FOV), and 7.6 cm intra-section FOV). The administration of radioactive compound [^18F] PM-PBB3 (precursor obtained from Aprinoia) and the PET scan were performed in dimly lit after the mice was treated with 1.5% isoflurane anesthesia to avoid […] of the radioactive compound. The emission scan was performed for 60 minutes immediately after the intravenous administration of [^18F] PM-PBB3 (1 mCi) (3D list mode, energy window: 350-750 keV). Then, the list mode data sorted into 3D synograms were converted into 2D synograms by Fourier-rebinding (frames: 4×1, 8×2 and 8×5 minutes). The dynamic image for 60 minutes after the administration of [^18F] PM-PBB3 was reconstructed by a filter-corrected back projection with a 0.5 mm Hanning filter. Regions of interest (ROI) were set in multiple brain regions using PMOD image analysis software (PMOD Technology) with reference to the MRI templates and the PET reconstructed images. Tau aggregate accumulation was evaluated by calculating SUVR (Standardized uptake value ratio) with the cerebellum as a reference region, based on the added average of dynamic images from 40 minutes to 60 minutes.

rTg4510 mice = experiment: Cerebral atrophy in rTg4510 mice, MRI volume of brain regions (Test 5); conditions: for age-dependent increase in lateral ventricular volume vs non-administration group: mixed diet 3 mg/g-food with ABT 1 mg/g-food; for volume cerebellum / volume cerebral neocortex / volume hippocampus / volume lateral ventricle: 5.8 mg/g-food from the age of 4 months
Description: as §1, §2, §3
The evaluation of cerebral atrophy was performed with horizontal superconducting magnet type MRI (7T, inner diameter 400 mm, self-shielding type, zero boil-off type). The imaging was performed under isoflurane anesthesia while maintaining the rectal temperature at 36.5±0.5° C. After Tripilot acquisition, the brain images were acquired by TurboRARE T2 emphasis sequence (TR: 4200 ms, TE: 36 ms, Fat-Sup: on, NA: 4, RARE factor: 8, scan time: 14 min) (FOV read: 25.6 mm, FOV P1: 14.5 mm, Slice thickness: 0.5 mm, number of slices: 28). The ROI of each brain region was set in each of the acquired slices, and the volume of the brain region was calculated by summing the ROI areas of all the slices to evaluate the effect of the test compound.

[2] = test system: phosphorylated tau oligomer; experiment: Evaluation of phosphorylated tau oligomers in brain of APP-Tg mice, Western blotting (Test 4); conditions: for reducing effect of tau oligomer: with food for 7-10 days, ABT 1 mg/g-food depending on the compound, brain, anti-oligomerized tau antibody TOMA-1
Method: Test 4: Evaluation of Phosphorylated Tau Oligomers Using APP-Tg Mice
This test is a test to quantify the oligomer of phosphorylated tau in the brain to evaluate the action of a compound. […] The APP-Tg mice used herein were prepared by the method described in Test 3.
The test compound administered with food to APP-Tg mice for 7-10 days. At this time, in order to increase the blood concentration of the test compound, ABT was used in combination with a mixed diet of 1 mg/g-food depending on the compound. After the administration, the brain was collected, and the protein is extracted from the collected brain using TBS (Tris Buffered Saline) or sarcosyl, and then SDS-PAGE (sodium dodecyl sulfate-polyacrylamide gel electrophoresis) of the soluble or insoluble fraction was performed. After that, Western blotting was performed using an anti-oligomerized tau antibody (Anti-Tau, oligomeric, clone TOMA-1), and the effect of the test compound was evaluated by quantifying the band amount of the phosphorylated tau oligomer.
The reducing effect of phosphorylated tau oligomer was calculated by the following formula, and from the calculated values, the results were defined as follows: 0-25%: +, 25-50%: ++, 50-75%: +++, and 75-100%: ++++. The significant difference from the vehicle-administered group was determined using the Student t-test. For the band amount, the value corrected by the β-actin band amount was used.
Reducing effect of phosphorylated tau oligomer={(band amount of oligomerized tau in vehicle-administered group−band amount of oligomerized tau in test compound-administered group)/band amount of oligomerized tau in vehicle-administered group}×100

[3] = 4 month old, 3 mg/g-food, with ABT 1 mg/g-food
[4] = 6 month old, 3 mg/g-food, with ABT 1 mg/g-food
[5] = 8 month old, 3 mg/g-food, with ABT 1 mg/g-food
[6] = 4 month old, 5.8 mg/g-food from the age of 4 months
[7] = 6 month old, 5.8 mg/g-food from the age of 4 months
[8] = 8 month old, 5.8 mg/g-food from the age of 4 months
[9] = diet 5.8 mg/g-food from the age of 4 months
[10] = diet 5.8 mg/g-food from the age of 4 months, ages 4, 6 and 8 months, vs non-administration group
[11] = mixed diet 0.7 and 6.6 mg/g-food

## CN(c1ncc2cnn(CC(=O)Nc3ccn4ncnc4c3)c2n1)C1CCCC1 [Example 795, 2-{6-[cyclopentyl(methyl)amino]-1H-pyrazolo[3,4-d]pyrimidin-1-yl}-N-([1,2,4]triazolo[1,5-a]pyridin-7-yl)acetamide]
[1]; [3]
  SUVR(cerebellum ratio) cerebral neocortex: 1.023 ± 0.009
  SUVR(cerebellum ratio) hippocampus: 1.134 ± 0.042
[1]; [4]
  SUVR(cerebellum ratio) cerebral neocortex: 1.149 ± 0.031
  SUVR(cerebellum ratio) hippocampus: 1.308 ± 0.044
[1]; [5]
  SUVR(cerebellum ratio) cerebral neocortex: 1.268 ± 0.036
  SUVR(cerebellum ratio) hippocampus: 1.419 ± 0.048
[1]; mixed diet 3 mg/g-food with ABT 1 mg/g-food
  age-dependent increase in SUVR in the cerebral neocortex and hippocampus (FIG. 5): tended to be suppressed
[1]; mixed diet 3 mg/g-food with ABT 1 mg/g-food, ages 4, 6 and 8 months
  increase in PET tracer accumulation in each brain region with aging (average SUVR images, FIG. 4): suppressed
rTg4510 mice; at the age of 6 months
  age-dependent increase in lateral ventricular volume vs non-administration group: tendency to suppress
rTg4510 mice; at the age of 8 months
  age-dependent increase in lateral ventricular volume vs non-administration group: not different
[2]; dose 0.2 mg/g-food, 7-10 days, with ABT 1 mg/g-food
  Reducing effect of phosphorylated tau oligomer: + (0-25%: +)
[2]; dose 2 mg/g-food, 7-10 days, with ABT 1 mg/g-food
  Reducing effect of phosphorylated tau oligomer: +++ (50-75%: +++)
[2]
  reducing effect of tau oligomer: some reducing effect of tau oligomer; also recorded: strong reducing effect of tau oligomer

## CC1CCN(c2ccc(=O)n(CC(=O)Nc3ccc(C#N)cc3)n2)CC1 [Example 1, N-(4-Cyanophenyl)-2-[3-(4-methylpiperidin-1-yl)-6-oxopyridazin-1(6H)-yl]acetamide]
[1]; [6]
  SUVR(cerebellum ratio) cerebral neocortex: 0.986 ± 0.009
  SUVR(cerebellum ratio) hippocampus: 1.078 ± 0.009
[1]; [7]
  SUVR(cerebellum ratio) cerebral neocortex: 1.098 ± 0.013
  SUVR(cerebellum ratio) hippocampus: 1.182 ± 0.016
[1]; [8]
  SUVR(cerebellum ratio) cerebral neocortex: 1.184 ± 0.017
  SUVR(cerebellum ratio) hippocampus: 1.284 ± 0.024
[1]; [9]
  age-dependent increase in SUVR in the cerebral neocortex and hippocampus (FIG. 3): statistically significantly suppressed
[1]; [10]
  increase in tau PET tracer accumulation in each region with aging (SUVR average images, FIG. 1): significantly suppressed
rTg4510 mice; 4 month old
  volume cerebellum: 34.3 ± 0.19 mm^3
  volume cerebral neocortex: 60.1 ± 0.49 mm^3
  volume hippocampus: 14.0 ± 0.13 mm^3
  volume lateral ventricle: 0.79 ± 0.014 mm^3
rTg4510 mice; 6 month old
  volume cerebellum: 33.9 ± 0.18 mm^3
  volume cerebral neocortex: 50.9 ± 0.98 mm^3
  volume hippocampus: 12.6 ± 0.22 mm^3
  volume lateral ventricle: 1.70 ± 0.312 mm^3
rTg4510 mice; 8 month old
  volume cerebellum: 33.4 ± 0.33 mm^3
  volume cerebral neocortex: 45.3 ± 1.13 mm^3
  volume hippocampus: 12.7 ± 0.12 mm^3
  volume lateral ventricle: 0.61 ± 0.036 mm^3
rTg4510 mice; [9]
  age-dependent cerebral atrophy in the cerebral neocortex and hippocampus (volume, FIG. 2): statistically significantly suppressed
  age-dependent increase in the lateral ventricular volume (FIG. 2): statistically significantly suppressed
rTg4510 mice; [10]
  cerebral atrophy and enlargement of the lateral ventricle with aging (T2-weighted images, FIG. 1): significantly suppressed
[2]; dose 1.9 mg/g-food, 7-10 days, without ABT
  Reducing effect of phosphorylated tau oligomer: + + +
[2]; dose 5.8 mg/g-food, 7-10 days, without ABT
  Reducing effect of phosphorylated tau oligomer: + + + +
[2]
  reducing effect of tau oligomer: some reducing effect of tau oligomer; also recorded: strong reducing effect of tau oligomer

## CC1CC=C(c2cnc3cnn(CC(=O)Nc4ccn5ncnc5c4)c3n2)CC1 (stereo not shown) [Example 577, 2-[6-(4-methylcyclohex-1-en-1-yl)-1H-pyrazolo[3,4-b]pyrazin-1-yl]-N-([1,2,4]triazolo[1,5-a]pyridin-7-yl)acetamide]
[1]; mixed diet 0.7 mg/g-hood administration group
  individuals that did not show any increase in the SUVR from the age of 6 months to the age of 8 months: 3 out of 5
[1]; mixed diet 6.6 mg/g-hood administration group
  individuals that did not show any increase in the SUVR from the age of 6 months to the age of 8 months: 3 out of 6
[1]; [11]
  accumulation of tau aggregates (suggested from SUVR): suppressed
rTg4510 mice; [11]
  suppression of cerebral atrophy: no suppression
[2]; Mus musculus, po, dose 2.2 mg/g-food, 7-10 days, without ABT, read-out: Reducing effect of phosphorylated tau oligomer
  inhibition in vivo at 2.2 mg/g-food: 0 to 25%
[2]; Mus musculus, po, dose 6.6 mg/g-food, 7-10 days, without ABT, read-out: Reducing effect of phosphorylated tau oligomer
  inhibition in vivo at 6.6 mg/g-food: 50 to 75%
[2]
  reducing effect of tau oligomer: some reducing effect of tau oligomer; also recorded: strong reducing effect of tau oligomer
